This note sets out measurements from ChEMBL document CHEMBL2074358, “Differential gene expression of organic anion transporters in male and female rats” (Biochem Biophys Res Commun, 2002).

Series [1] concerns the target T1, Organic anion transporter 3 (Rattus norvegicus, UniProt Q9R1U7).
T1 sequence (Q9R1U7 whole entry): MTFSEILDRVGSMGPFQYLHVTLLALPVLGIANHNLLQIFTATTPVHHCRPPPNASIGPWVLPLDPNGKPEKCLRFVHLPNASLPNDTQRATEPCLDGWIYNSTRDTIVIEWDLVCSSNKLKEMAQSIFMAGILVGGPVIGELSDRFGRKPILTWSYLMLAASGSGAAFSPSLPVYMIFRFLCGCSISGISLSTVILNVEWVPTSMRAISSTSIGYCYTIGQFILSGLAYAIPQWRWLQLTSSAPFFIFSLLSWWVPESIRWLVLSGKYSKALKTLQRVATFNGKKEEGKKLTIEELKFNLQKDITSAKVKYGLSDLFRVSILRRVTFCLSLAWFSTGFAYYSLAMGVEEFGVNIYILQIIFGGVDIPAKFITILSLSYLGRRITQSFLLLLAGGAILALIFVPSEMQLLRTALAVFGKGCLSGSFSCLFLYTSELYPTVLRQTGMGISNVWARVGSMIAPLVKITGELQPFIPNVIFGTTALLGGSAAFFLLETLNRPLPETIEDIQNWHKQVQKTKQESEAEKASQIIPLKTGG
Briefly: (§1) TP_TRANSPORTER: Northern blot in vivo, kidney of Wistar rat. Type of series: functional, organism-based.

Series [2] deals with T2, Solute carrier family 22 member 7 (Rattus norvegicus, UniProt Q5RLM2).
T2 sequence (Q5RLM2 whole entry): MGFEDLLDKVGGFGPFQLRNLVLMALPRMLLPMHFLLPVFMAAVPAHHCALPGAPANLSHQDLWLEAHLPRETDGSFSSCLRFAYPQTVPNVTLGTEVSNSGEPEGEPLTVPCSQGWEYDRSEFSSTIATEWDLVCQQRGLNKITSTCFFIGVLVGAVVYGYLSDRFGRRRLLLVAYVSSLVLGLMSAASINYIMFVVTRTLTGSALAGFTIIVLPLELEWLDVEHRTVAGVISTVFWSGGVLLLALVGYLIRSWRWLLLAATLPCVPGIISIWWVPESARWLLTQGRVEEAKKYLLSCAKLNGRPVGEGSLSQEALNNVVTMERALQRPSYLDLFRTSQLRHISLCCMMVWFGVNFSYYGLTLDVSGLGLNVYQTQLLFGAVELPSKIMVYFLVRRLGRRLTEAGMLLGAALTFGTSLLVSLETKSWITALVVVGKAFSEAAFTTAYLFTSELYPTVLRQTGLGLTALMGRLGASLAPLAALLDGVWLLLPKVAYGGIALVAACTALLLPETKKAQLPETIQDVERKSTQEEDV
The description is as §1. In kind it is functional, organism-based.

On to `C[C@]12CC[C@H]3[C@@H](CCC4=CC(=O)CC[C@@]43C)[C@@H]1CC[C@@H]2O` [TESTOSTERONE], for which the Activity result is “inducer [+]” in series [1] and “inducer [Decrease]” in series [2].
